Source: patent publication EP0443568B1, “Fused thiophene derivatives, their production and use” (Takeda Chemical Industries, Ltd., priority 1990, dated 1991)

Experiments:
[1] = target: T1, A-II-receptor (Bos taurus, UniProt P25104); assay: Inhibition of binding of angiotensin-II to angiotensin receptor (radio receptor assay, 125I-A-II); details: membrane fraction of bovine adrenal cortex, room temperature, one hour, read-out: Radio Receptor Assay IC₅₀
T1 construct: An A-II-receptor was prepared from the membrane fraction of bovine adrenal cortex; from tissue; host or cells: bovine adrenal cortex membrane fraction
T1 sequence (P25104 1-359): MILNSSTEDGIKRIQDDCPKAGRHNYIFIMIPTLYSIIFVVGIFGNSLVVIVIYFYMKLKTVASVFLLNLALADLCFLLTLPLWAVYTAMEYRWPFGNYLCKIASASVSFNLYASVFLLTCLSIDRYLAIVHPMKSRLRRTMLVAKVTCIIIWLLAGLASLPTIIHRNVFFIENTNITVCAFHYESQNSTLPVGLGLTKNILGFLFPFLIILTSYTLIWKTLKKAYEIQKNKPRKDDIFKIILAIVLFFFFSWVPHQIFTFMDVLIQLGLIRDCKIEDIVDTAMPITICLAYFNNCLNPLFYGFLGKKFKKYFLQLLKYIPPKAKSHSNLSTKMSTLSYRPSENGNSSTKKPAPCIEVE
Method: An experiment of inhibition on the binding of angiotensin-II (A-II) to A-II-receptor was conducted by modifying the method of Douglas et al. [Endocrinology, 102, 685-696 (1978)]. An A-II-receptor was prepared from the membrane fraction of bovine adrenal cortex.
The compound of the present invention (10⁻⁹M to 3 × 10⁻⁵M ) and ¹²⁵I-A-II (1.85 kBq/50 µ l) were added to the receptor membrane fraction, and the mixture was incubated at room temperature for one hour. The receptor-bound and free ¹²⁵I-A-II were separated through a filter (Whatman GF/B filter), and the radioactivity of ¹²⁵I-A-II bound to the receptor was measured.

[2] = tested on: A-II-induced pressor action; assay: Inhibitory effect on pressor action of A-II in rats after oral administration; type: in vivo, Jcl : SD rats; details: Rattus norvegicus, p.o., A-II 100 ng/kg intravenous, male SD rats, read-out: Pressor Response (30 mg/Kg, p.o.)
Method: Jcl : SD rats (9 week old, male) were used. On the day previous to the experiment, these animals were applied with cannulation into the femoral artery and vein under anesthesia with pentobarbital Na. The animals were fasted but allowed to access freely to drinking water until the experiment was started. Just on the day of conducting the experiment, the artery cannula was connected with a blood-pressure transducer, and the average blood pressure was recorded by means of polygraph. Before administration of the drug, the pressor action due to intravenous administration of A-II (100 ng/kg) as the control was measured. The drugs were orally administered, and then, at each point of the measurement, A-II was administered intravenously, and the pressor action was similarly measured. By comparing the pressor action before and after administration of the drug, the percent inhibition by the drug on A-II-induced pressor action was evaluated.

Structure (SMILES) | IC50 [1] [µM] | inhibition in vivo at 30 mg/kg [2] [%]
CCc1cc2c(=O)c(C(=O)NCc3ccc(C)cc3)cn(Cc3ccc(-c4ccccc4-c4nn[nH]n4)cc3)c2s1 [compound 28] | 0.22 | 50 to 70
CCc1cc2c(=O)c(C(=O)NCc3cccc(F)c3)cn(Cc3ccc(-c4ccccc4-c4nn[nH]n4)cc3)c2s1 [compound 24] | 0.19 | ≥ 70
CCc1cc2c(=O)c(C(=O)NC(C)c3ccccc3)cn(Cc3ccc(-c4ccccc4-c4nn[nH]n4)cc3)c2s1 (stereo not shown) [compound 25] | 0.78 | ≥ 70
CCOC(=O)c1cn(Cc2ccc(-c3ccccc3C(=O)O)cc2)c2sc(CC)cc2c1=O [compound 11] | 0.21 | 
CCc1cc2c(=O)c(C(=O)NCCO)cn(Cc3ccc(-c4ccccc4-c4nn[nH]n4)cc3)c2s1 [compound 15] | 0.05 | 
CCOC(=O)c1cn(Cc2ccc(-c3ccccc3-c3nn[nH]n3)cc2)c2sc(C#N)cc2c1=O [compound 20] | 0.67 | 
CCc1cc2c(=O)c(C(=O)NCc3ccccc3F)cn(Cc3ccc(-c4ccccc4-c4nn[nH]n4)cc3)c2s1 [compound 26] | 0.21 | ≥ 70
CCc1cc2c(=O)c(C(=O)NCC(C)C)cn(Cc3ccc(-c4ccccc4-c4nn[nH]n4)cc3)c2s1 [compound 14] | 0.13 | 
CCc1cc2c(=O)c(C(=O)NCc3ccccc3)cn(Cc3ccc(-c4ccccc4-c4nn[nH]n4)cc3)c2s1 [compound 12] | 0.06 | ≥ 70
CCc1cc2c(=O)c(C(=O)NCc3ccccn3)cn(Cc3ccc(-c4ccccc4-c4nn[nH]n4)cc3)c2s1 [compound 30] | 0.02 | ≥ 70
CCOC(=O)c1cn(Cc2ccc(-c3ccccc3-c3nn[nH]n3)cc2)c2sccc2c1=O [compound 4] | 0.2 | 
CCc1cc2c(=O)c(C(=O)NCc3ccccc3OC)cn(Cc3ccc(-c4ccccc4-c4nn[nH]n4)cc3)c2s1 [compound 21] | 0.25 | ≥ 70

Now from value to molecule, other results behind:

IC50 [1] [µM] | Structure (SMILES) | inhibition in vivo at 30 mg/kg [2] [%]
0.17 | CCc1cc2c(=O)c(C(=O)OCC(C)C)cn(Cc3ccc(-c4ccccc4-c4nn[nH]n4)cc3)c2s1 [compound 7] | 
0.05 | CCOC(=O)c1cn(Cc2ccc(-c3ccccc3-c3nn[nH]n3)cc2)c2sc(C)cc2c1=O [compound 5] | 
0.07 | CCOC(=O)c1cn(Cc2ccc(-c3ccccc3-c3nn[nH]n3)cc2)c2sc(Br)cc2c1=O [compound 3] | 
0.04 | CCc1cc2c(=O)c(C(=O)O)cn(Cc3ccc(-c4ccccc4-c4nn[nH]n4)cc3)c2s1 [compound 10] | 50 to 70
0.12 | CCc1cc2c(=O)c(C(=O)NCc3ccccc3C)cn(Cc3ccc(-c4ccccc4-c4nn[nH]n4)cc3)c2s1 [compound 29] | ≥ 70
0.02 | CCc1cc2c(=O)c(C(N)=O)cn(Cc3ccc(-c4ccccc4-c4nn[nH]n4)cc3)c2s1 [compound 13] | 
0.09 | CCCc1cc2c(=O)c(C(=O)OCC)cn(Cc3ccc(-c4ccccc4-c4nn[nH]n4)cc3)c2s1 [compound 6] | 
0.12 | CCc1cc2c(=O)c(C(=O)Nc3ccccc3)cn(Cc3ccc(-c4ccccc4-c4nn[nH]n4)cc3)c2s1 [compound 16] | ≥ 70
0.01 | CCc1cc2c(=O)c(C(=O)OCCOC)cn(Cc3ccc(-c4ccccc4-c4nn[nH]n4)cc3)c2s1 [compound 8] | 
0.05 | CCOC(=O)c1cn(Cc2ccc(-c3ccccc3-c3nn[nH]n3)cc2)c2sc(CC)cc2c1=O [compound 2] | 
0.17 | CCc1cc2c(=O)c(C(=O)NCc3ccc(F)cc3)cn(Cc3ccc(-c4ccccc4-c4nn[nH]n4)cc3)c2s1 [compound 23] | ≥ 70
